Results as given in paper PMC10410440, “Preclinical PK investigation of a novel IDO1/TDO dual inhibitor—SHR9146 in mouse plasma and tissues by LC-MS/MS” (Frontiers in Oncology, 2023).
“And” between values parts separate entries of the source, which are not always exact repeats. Equal entries are not always repeated. “Also recorded” adds a separate entry of the source. Where two headings read alike, the source gives them in different places.

Assay: Plasma pharmacokinetics of SHR9146 in mice (LC-MS/MS, non-compartmental analysis)
Type: in vivo, ICR mice
Conditions: for AUC(0-t): read-out: AUC0-t; for half-life: read-out: t1/2 (converted); for Cmax: read-out: Cmax; for Tmax: read-out: Tmax
Method: ICR mice with body weight 16–26 g were supplied by Shanghai Lingchang Biotechnology Co., Ltd. (animal breeding license number SCXK (Shanghai) 2013-0018) and housed at Shanghai Institute of Materia Medica, Chinese Academy of Sciences [animal use license number SYXK (Shanghai) 2015-0027]. The mice used in this study were fasted overnight for 12 h but had free access to water. Food was supplied 4 h post-dose. All experiments in this study were conducted in accordance with the Guidelines for the Care and Use of Laboratory Animals of Shanghai Institute of Materia Medica, Chinese Academy of Sciences.
A total of 30 mice were randomly assigned into five groups with equal numbers, males and females. One group was intravenously administrated with 5 mg/kg SHR9146 dissolved in […] plus 95% saline (adjusted pH to 4.0) under sterile conditions. The remaining four groups were administered respectively with a single dose of 20 , 40, or 80 mg/kg or multiple doses of 20 mg/kg twice daily for 7 days, by oral gavage of SHR9146 dissolved in 0.5% CMC-Na. Blood samples were obtained from the fossa orbitalis vein at 15 and 30 min and 1.0, 2.0, 4.0, 6.0, 8.0, 10.0, and 24.0 h after oral gavage administration. An additional 5-min time point was included for iv injection, as well as the pre-drug administration time points on the fifth, sixth, and seventh days in the multiple-dose group. The blood samples were collected in EDTA K2 anticoagulant blood collection tubes and centrifuged at 1,000 rpm for 5 min at 4°C. The supernatant plasma samples were thus produced.
Briefly as follows, an aliquot of 25-μL plasma or tissue homogenate was spiked with 100 μL of internal standard solution (1 μg/mL for plasma, 0.2 μg/mL for tissue homogenate) and 300 μL of methanol added and vortex mixed for 60 s. The mixture was then centrifuged at 14,000 rpm at 4°C for 5.0 min, and the supernatant was diluted with methanol–water (4:1, v/v) in a ratio of 1:9 for the plasma or 1:1 for the tissue homogenate, and 5 μL of the resulting solution was injected for the LC-MS/MS analysis.
The pharmacokinetic parameters of SHR9146 in mouse plasma were estimated by Phoenix 1.4 software using a non-compartmental model.
The mean concentration–time curves of SHR9146 in mouse plasma after a single oral gavage dose of 20, 40, or 80 mg/kg, or a single intravenous dose of 5 mg/kg, or the 7th-day steady state after twice-daily multiple oral doses of 20 mg/kg are shown in Figure 5 (Table S6).

[1] = female, ICR, mouse, plasma, iv, 5 mg/kg, 5 mg/kg i.v. single dose, female mice, plasma
[2] = female, ICR, mouse, plasma, po, 20 mg/kg, 20 mg/kg i.g. bid, 7 days (7th-day steady state), female mice, plasma
[3] = female, ICR, mouse, plasma, po, 20 mg/kg, 20 mg/kg i.g. single dose, female mice, plasma
[4] = female, ICR, mouse, plasma, po, 40 mg/kg, 40 mg/kg i.g. single dose, female mice, plasma
[5] = female, ICR, mouse, plasma, po, 80 mg/kg, 80 mg/kg i.g. single dose, female mice, plasma
[6] = male, ICR, mouse, plasma, iv, 5 mg/kg, 5 mg/kg i.v. single dose, male mice, plasma
[7] = male, ICR, mouse, plasma, po, 20 mg/kg, 20 mg/kg i.g. bid, 7 days (7th-day steady state), male mice, plasma
[8] = male, ICR, mouse, plasma, po, 20 mg/kg, 20 mg/kg i.g. single dose, male mice, plasma
[9] = male, ICR, mouse, plasma, po, 40 mg/kg, 40 mg/kg i.g. single dose, male mice, plasma
[10] = male, ICR, mouse, plasma, po, 80 mg/kg, 80 mg/kg i.g. single dose, male mice, plasma
[11] = single oral dosing 20 to 80 mg/kg pooled, mouse plasma, n=6

OCCn1cc(-c2ccc(N3CCC([C@H]4c5c(F)cccc5-c5cncn54)CC3)cc2)cn1 [SHR9146]
MRT inf (both sexes, ICR, mouse, po, 80 mg/kg i.g. single dose, all mice (Totol, 3 male + 3 female), plasma, read-out: MRT0-∞): 4.6 h | AUC(0-inf) (female, ICR, mouse, plasma, iv, 5 mg/kg, 5 mg/kg i.v. single dose, female mice): 6910 ng·h/mL | AUC(0-t) [1]: 6800 ng·h/mL | half-life [1]: 0.665 h | AUC(0-inf) (female, ICR, mouse, plasma, po, 20 mg/kg, 20 mg/kg i.g. bid, 7 days (7th-day steady state), female mice): 24300 ng·h/mL | AUC(0-t) [2]: 24200 ng·h/mL | Cmax [2]: 10900 ± 737 ng/mL | Tmax [2]: 0.833 ± 0.289 h | half-life [2]: 0.951 h | AUC(0-inf) (female, ICR, mouse, plasma, po, 20 mg/kg, 20 mg/kg i.g. single dose, female mice): 17900 ng·h/mL | AUC(0-t) [3]: 16800 ng·h/mL | Cmax [3]: 9170 ± 4240 ng/mL | Tmax [3]: 0.5 ± 0.433 h | half-life [3]: 0.866 h | AUC(0-t) [4]: 12400 ng·h/mL | Cmax [4]: 9880 ± 3490 ng/mL | Tmax [4]: 1.83 ± 1.89 h | AUC(0-inf) (female, ICR, mouse, plasma, po, 80 mg/kg, 80 mg/kg i.g. single dose, female mice): 65900 ng·h/mL | AUC(0-t) [5]: 64700 ng·h/mL | Cmax [5]: 18700 ± 7300 ng/mL | Tmax [5]: 1.17 ± 0.764 h | half-life [5]: 1.49 h | AUC(0-inf) (male, ICR, mouse, plasma, iv, 5 mg/kg, 5 mg/kg i.v. single dose, male mice): 6950 ng·h/mL | AUC(0-t) [6]: 6730 ng·h/mL | half-life [6]: 0.761 h | AUC(0-inf) (male, ICR, mouse, plasma, po, 20 mg/kg, 20 mg/kg i.g. bid, 7 days (7th-day steady state), male mice): 24400 ng·h/mL | AUC(0-t) [7]: 24300 ng·h/mL | Cmax [7]: 10500 ± 993 ng/mL | Tmax [7]: 0.833 ± 0.289 h | half-life [7]: 1.06 h | AUC(0-inf) (male, ICR, mouse, plasma, po, 20 mg/kg, 20 mg/kg i.g. single dose, male mice): 14600 ng·h/mL | AUC(0-t) [8]: 14400 ng·h/mL | Cmax [8]: 10000 ± 2370 ng/mL | Tmax [8]: 0.417 ± 0.144 h | half-life [8]: 0.531 h | AUC(0-inf) (male, ICR, mouse, plasma, po, 40 mg/kg, 40 mg/kg i.g. single dose, male mice): 33400 ng·h/mL | AUC(0-t) [9]: 31000 ng·h/mL | Cmax [9]: 15000 ± 3240 ng/mL | Tmax [9]: 1.33 ± 0.577 h | half-life [9]: 1.66 h | AUC(0-inf) (male, ICR, mouse, plasma, po, 80 mg/kg, 80 mg/kg i.g. single dose, male mice): 75900 ng·h/mL | AUC(0-t) [10]: 75300 ng·h/mL | Cmax [10]: 15500 ± 6150 ng/mL | Tmax [10]: 1.83 ± 1.89 h | half-life [10]: 3.3 h | Vd, post-oral (oral 20 to 80 mg/kg pooled, mouse plasma, n=6): 3.427 ± 1.617 L/kg | dose dependence of oral pharmacokinetics (oral 20 to 80 mg/kg, mice, Cmax and AUC): dose proportionality; also recorded: linear pharmacokinetics characteristics; also recorded: dose-independent kinetics | CL, post-oral [11]: 19.8 ± 0.9 mL/min/kg and 19.769 ± 0.866 mL/min/kg | Vd, post-oral [11]: 3.43 ± 1.62 L/kg
